Laboratory results from patent US8163870B2, “Channel forming peptides” (Kansas State University Research Foundation, priority 2000, dated 2012).
Several values for one entry are separate records, joined by “and”; a condition that tells them apart may be missing. Equal values may be shown once. Non-standard residues stand in square brackets, D forms with d. No end group written: not given here. DAP = diaminopimelic acid

These compounds were tested on MDCK cells. Settings: MDCK monolayers, modified Hill equation fit; listed as SEQ ID NO. 27; read-out: half maximal effect on Isc (EC50 / K1/2).
Assay type: cell-based, canine
From the text: Cell culture: MDCK cells were a generous gift of Dr. Lawrence Sullivan (Kansas University Medical Center, Kansas City, Kans.). T84 cells were obtained from Dr. Daniel Devor (University of Pittsburgh, Pittsburgh, Pa.). MDCK and T84 cells were maintained with similar culture procedures. The culture medium was a 1:1 mixture of DMEM and Ham's F-12 (Gibco BRL, Grand Island, N.Y.) supplemented with 5% heat inactivated fetal bovine serum (BioWhittaker, Walkersville, Md.), and 1% penicillin and streptomycin (Gibco BRL). Cells were grown in plastic culture flasks in a humidified environment with 5% CO2 at 37° C. and passaged every 5-7 days. For Ussing chamber experiments, cells were plated on 1.13 cm^2 permeable supports (Snapwell™, Costar®, Cambridge, Mass.) at a density of approximately 1×10^6 cells/well and incubated in DMEM/F-12 supplemented with FBS and antibiotics (changed every other day) for 2-3 weeks prior to being mounted in modified Ussing flux chambers.
To form monolayers, the cells were plated onto the upper surface of a permeable membrane that forms the bottom of a plastic well. Two types were used. One was the Transwell™ insert (Costar®, Cambridge, Mass.) supported in a six-well tissue culture plate and the other type was the Snapwell™ (Costar®, Cambridge, Mass.). During incubation, the medium was replaced at 48-72 hour intervals. Confluent monolayers formed within 72 hours. Experiments were performed on the monolayers 6-9 days after the initial plating. Net fluid secretion responses were optimal after six days.
Solutions: Ringer solution was made fresh daily. The final concentration (in mM) was 120 NaCl, 25 NaHCO3 3.3 KH2HPO4, 0.8 K2HPO4, 1.2 MgCl2, 1.2 CaCl2, (290±2 mOsmol). All components of the Ringer solution were from Sigma (St. Louis, Mo.).
(§1) Epithelial electrical measurements: Transepithelial ion transport was evaluated in a modified Ussing chamber (Model DCV9, Navicyte, San Diego, Calif.). The Ussing chamber's fluid resistance compensation was completed in Ringer solution (see below). For electrical measurements cell monolayers were bathed in Ringer solution maintained at 37° C. and continuously bubbled with 5% CO2:95% O2. The transepithelial membrane potential (Vte) was clamped to zero and the transepithelial short circuit current (Isc), an indicator of net ion transport, was measured continuously with a voltage clamp apparatus (Model 558C, University of Iowa, Department of Bioengineering, Iowa City, Iowa). Data were digitally acquired at 1 Hz with a Macintosh computer (Apple Computer, Cuppertino, Calif.) using Aqknowledge software (ver. 3.2.6, BIOPAC Systems, Santa Barbara, Calif.) with an MP100A-CE interface.
as §1, with “Transepithelial” for “Epithelial electrical measurements: Transepithelial”, “(composition (in mM) was 120 NaCl, 25 NaHCO3 3.3 KH2HPO4, 0.8 K2HPO4, 1.2 MgCl2, 1.2 CaCl2).” for “(see below).”
MDCK cell monolayers (in the presence of 1-EBIO to maximize basolateral membrane K^+ conductance) were exposed on the apical aspect to escelating peptide concentrations. Maximal change in Isc (relative to the Isc prior to peptide exposure) was recorded following each increment in apical peptide concentration. […]
With “KKKKAARVGLGITTVLVTTIGLGVRAA [SEQ ID No. 27, KKKKAARVGL GITTVLVTTI GLGVRAA]” the EC50 was 50 µM and ~40 µM.

Same assay, conditions: MDCK monolayers, modified Hill equation fit; read-out: half maximal effect on Isc (EC50 / K1/2)
“KKKKAARVGLGITTVLVTTIGLGVRAA [SEQ ID No. 27, KKKKAARVGL GITTVLVTTI GLGVRAA]” was tested, and the EC50 was 40 µM.

Same assay, conditions: MDCK pretreatment, basal conditions
With `CCn1c(=O)[nH]c2ccccc21` [1-EBIO, reference compound] the “effect on ISC or gTE” value was “no effect”.

Same assay, conditions: peptide at 100 μM
In the case of “KKKKAARVGL GITTVVTTIG LGVRAA (KKKKAARVGLGITTVVTTIGLGVRAA; Modified Homo sapiens) [SEQ ID No. 28]”, the “Activity profile in MDCK cells” value is reported as 17.3 at 100 μM μA/cm2.

Same assay, conditions: peptide at 250 μM
In the case of “KKKKPARVGL GITTVLAARV GLGITTV (KKKKPARVGLGITTVLAARVGLGITTV; Modified Homo sapiens) [SEQ ID No. 21]”, the “Activity profile in MDCK cells” value is reported as 8.0 at 250 μM μA/cm2.

Same assay, conditions: peptide at 300 μM
For “KKKKARSGSS QTTMTLVTTI GLGVRAA (KKKKARSGSSQTTMTLVTTIGLGVRAA; Modified Homo sapiens) [SEQ ID No. 4]”, the “Activity profile in MDCK cells” value was 18.7 at 300 μM μA/cm2.

Same assay, conditions: peptide at 500 μM
For “KKKKPARVGLGITTVLTMTTQSSGSRAKKKK (KKKKPARVGLGITTVLTMTTQSSGSRAKKKK; Modified Homo sapiens) [SEQ ID No. 47]”, the “Activity profile in MDCK cells” value was 5.0 at 500 μM μA/cm2.
In the case of “KKKKPARVGL GITTVWTMTT QSSGSRA (KKKKPARVGLGITTVWTMTTQSSGSRA; Modified Homo sapiens) [SEQ ID No. 10]”, the “Activity profile in MDCK cells” value is reported as 20.0 at 500 μM μA/cm2.
For “KKKKTMTTQS SGSRALARSG SSQTTMT (KKKKTMTTQSSGSRALARSGSSQTTMT; Modified Homo sapiens) [SEQ ID No. 24]”, the “Activity profile in MDCK cells” value was less than 1.0 at 500 μM μA/cm2.
“KKKKPARVGL GITTVLTMTT QSSGS (KKKKPARVGLGITTVLTMTTQSSGS; Modified Homo sapiens) [SEQ ID No. 33]” was tested, and the “Activity profile in MDCK cells” value was 18.4 at 500 μM μA/cm2.
In the case of “KKKKPARVGL GITTVLTM (KKKKPARVGLGITTVLTM; Modified Homo sapiens) [SEQ ID No. 38]”, the “Activity profile in MDCK cells” value is reported as 6.8 at 500 μM μA/cm2.
In the case of “KKKKPARVGL GITTVLTMTT RS (KKKKPARVGLGITTVLTMTTRS; Modified Homo sapiens) [SEQ ID No. 13]”, the “Activity profile in MDCK cells” value is reported as 24.0 at 500 μM μA/cm2.
For “PARVGLGITT V (PARVGLGITTV; Modified Homo sapiens) [SEQ ID No. 48]”, the “Activity profile in MDCK cells” value was less than 1.0 at 500 μM μA/cm2.
In the case of “KKKKPARVGL GITTVLTRTT QS (KKKKPARVGLGITTVLTRTTQS; Modified Homo sapiens) [SEQ ID No. 15]”, the “Activity profile in MDCK cells” value is reported as less than 1.0 at 500 μM μA/cm2.
In the case of “KKKKPARVGL GITTVLTMTT Q (KKKKPARVGLGITTVLTMTTQ; Modified Homo sapiens) [SEQ ID No. 35]”, the “Activity profile in MDCK cells” value is reported as 13.1 at 500 μM μA/cm2.
In the case of “AARVGLGITT V (AARVGLGITTV; Modified Homo sapiens) [SEQ ID No. 52]”, the “Activity profile in MDCK cells” value is reported as less than 1.0 at 500 μM μA/cm2.
“GITTVLTMTT QSSGSRAKKK K (GITTVLTMTTQSSGSRAKKKK; Modified Homo sapiens) [SEQ ID No. 44]” was tested, and the “Activity profile in MDCK cells” value was less than 1.0 at 500 μM μA/cm2.
“RVGLGITTVL TMTTQSSGSR AKKKK (RVGLGITTVLTMTTQSSGSRAKKKK; Modified Homo sapiens) [SEQ ID No. 41]” was tested, and the “Activity profile in MDCK cells” value was 6.3 at 500 μM μA/cm2.
“TMTTQSSGSR A (TMTTQSSGSRA; Modified Homo sapiens) [SEQ ID No. 49]” was tested, and the “Activity profile in MDCK cells” value was less than 1.0 at 500 μM μA/cm2.
“KKKKVTTIGL GVRAPLARSG SSQTTMT [SEQ ID No. 8]” was tested, and the “Activity profile in MDCK cells” value was less than 1.0 at 500 μM μA/cm2.
In the case of “VTTIGLGVRA P (VTTIGLGVRAP; Modified Homo sapiens) [SEQ ID No. 50]”, the “Activity profile in MDCK cells” value is reported as less than 1.0 at 500 μM μA/cm2.
In the case of “VTTIGLGVRA A (VTTIGLGVRAA; Modified Homo sapiens) [SEQ ID No. 53]”, the “Activity profile in MDCK cells” value is reported as less than 1.0 at 500 μM μA/cm2.
For “KKKKPARVGL GITTVLTMTT (KKKKPARVGLGITTVLTMTT; Modified Homo sapiens) [SEQ ID No. 36]”, the “Activity profile in MDCK cells” value was 8.8 at 500 μM μA/cm2.
In the case of “KKKKTMTTQS SGSRALVTTI GLGVRAA (KKKKTMTTQSSGSRALVTTIGLGVRAA; Modified Homo sapiens) [SEQ ID No. 7]”, the “Activity profile in MDCK cells” value is reported as less than 1.0 at 500 μM μA/cm2.
With “KKKKPARVGL GITTVLT (KKKKPARVGLGITTVLT; Modified Homo sapiens) [SEQ ID No. 39]” the “Activity profile in MDCK cells” value was 1.8 at 500 μM μA/cm2.
In the case of “KKKKPARVGL GITTVLTMTT QR (KKKKPARVGLGITTVLTMTTQR; Modified Homo sapiens) [SEQ ID No. 14]”, the “Activity profile in MDCK cells” value is reported as 20.0 at 500 μM μA/cm2.
For “GLGITTVLTM TTQSSGSRAK KKK (GLGITTVLTMTTQSSGSRAKKKK; Modified Homo sapiens) [SEQ ID No. 42]”, the “Activity profile in MDCK cells” value was 3.3 at 500 μM μA/cm2.
For “LTMTTQSSGS RAKKKK (LTMTTQSSGSRAKKKK; Modified Homo sapiens) [SEQ ID No. 46]”, the “Activity profile in MDCK cells” value was less than 1.0 at 500 μM μA/cm2.
With “KKKKPARVGL GITTVLTRTT (DAP)S (KKKKPARVGLGITTVLTRTT[DAP]S) [SEQ ID No. 32]” the “Activity profile in MDCK cells” value was 24.0 at 500 μM μA/cm2.
“LGITTVLTMT TQSSGSRAKK KK (LGITTVLTMTTQSSGSRAKKKK; Modified Homo sapiens) [SEQ ID No. 43]” was tested, and the “Activity profile in MDCK cells” value was less than 1.0 at 500 μM μA/cm2.
In the case of “KKKKPARVGL GITTVL (KKKKPARVGLGITTVL; Modified Homo sapiens) [SEQ ID No. 40]”, the “Activity profile in MDCK cells” value is reported as 1.5 at 500 μM μA/cm2.
“ARSGSSQTTM TLVTTIGLGV RAPKKKK (ARSGSSQTTMTLVTTIGLGVRAPKKKK; Modified Homo sapiens) [SEQ ID No. 17]” was tested, and the “Activity profile in MDCK cells” value was 3.6 at 500 μM μA/cm2.
In the case of “KKKKARSGSS QTTMTLARSG SSQTTMT (KKKKARSGSSQTTMTLARSGSSQTTMT; Modified Homo sapiens) [SEQ ID No. 25]”, the “Activity profile in MDCK cells” value is reported as less than 1.0 at 500 μM μA/cm2.
With “KKKKPARVGL GITTVLTMTT QS (KKKKPARVGLGITTVLTMTTQS; Modified Homo sapiens) [SEQ ID No. 34]” the “Activity profile in MDCK cells” value was 20.3 at 500 μM μA/cm2.
For “KKKKARSGSS QTTMTLTMTT QSSGSRA (KKKKARSGSSQTTMTLTMTTQSSGSRA; Modified Homo sapiens) [SEQ ID No. 23]”, the “Activity profile in MDCK cells” value was 4.2 at 500 μM μA/cm2.
“KKKKVTTIGL GVRAPLPARV GLGITTV (KKKKVTTIGLGVRAPLPARVGLGITTV; Modified Homo sapiens) [SEQ ID No. 22]” was tested, and the “Activity profile in MDCK cells” value was less than 1.0 at 500 μM μA/cm2.
With “ITTVLTMTTQ SSGSRAKKKK (ITTVLTMTTQSSGSRAKKKK; Modified Homo sapiens) [SEQ ID No. 45]” the “Activity profile in MDCK cells” value was less than 1.0 at 500 μM μA/cm2.
In the case of “KKKKPARVGL GITTVLPARV GLGITTV (KKKKPARVGLGITTVLPARVGLGITTV; Modified Homo sapiens) [SEQ ID No. 20]”, the “Activity profile in MDCK cells” value is reported as less than 1.0 at 500 μM μA/cm2.
For “KKKKPARVGL GITTVLTMT (KKKKPARVGLGITTVLTMT; Modified Homo sapiens) [SEQ ID No. 37]”, the “Activity profile in MDCK cells” value was 8.7 at 500 μM μA/cm2.
For “ARSGSSQTTM T (ARSGSSQTTMT; Modified Homo sapiens) [SEQ ID No. 51]”, the “Activity profile in MDCK cells” value was less than 1.0 at 500 μM μA/cm2.
With “KKKKTMTTQS SGSRALTMTT QSSGSRA (KKKKTMTTQSSGSRALTMTTQSSGSRA; Modified Homo sapiens) [SEQ ID No. 6]” the “Activity profile in MDCK cells” value was less than 1.0 at 500 μM μA/cm2.
